# From ChEMBL document CHEMBL5136992, “Fascinating Transformation of SAM-Competitive Protein Methyltransferase Inhibitors from Nucleoside Analogues to Non-Nucleoside Analogues” (J Med Chem, 2022)
# Legend:
# [1] = target: T1, Histone-lysine N-methyltransferase EZH2 (Homo sapiens, UniProt Q15910); experiment: Inhibition of EZH2 (unknown origin)
# Target sequence in this assay (Q15910 whole entry): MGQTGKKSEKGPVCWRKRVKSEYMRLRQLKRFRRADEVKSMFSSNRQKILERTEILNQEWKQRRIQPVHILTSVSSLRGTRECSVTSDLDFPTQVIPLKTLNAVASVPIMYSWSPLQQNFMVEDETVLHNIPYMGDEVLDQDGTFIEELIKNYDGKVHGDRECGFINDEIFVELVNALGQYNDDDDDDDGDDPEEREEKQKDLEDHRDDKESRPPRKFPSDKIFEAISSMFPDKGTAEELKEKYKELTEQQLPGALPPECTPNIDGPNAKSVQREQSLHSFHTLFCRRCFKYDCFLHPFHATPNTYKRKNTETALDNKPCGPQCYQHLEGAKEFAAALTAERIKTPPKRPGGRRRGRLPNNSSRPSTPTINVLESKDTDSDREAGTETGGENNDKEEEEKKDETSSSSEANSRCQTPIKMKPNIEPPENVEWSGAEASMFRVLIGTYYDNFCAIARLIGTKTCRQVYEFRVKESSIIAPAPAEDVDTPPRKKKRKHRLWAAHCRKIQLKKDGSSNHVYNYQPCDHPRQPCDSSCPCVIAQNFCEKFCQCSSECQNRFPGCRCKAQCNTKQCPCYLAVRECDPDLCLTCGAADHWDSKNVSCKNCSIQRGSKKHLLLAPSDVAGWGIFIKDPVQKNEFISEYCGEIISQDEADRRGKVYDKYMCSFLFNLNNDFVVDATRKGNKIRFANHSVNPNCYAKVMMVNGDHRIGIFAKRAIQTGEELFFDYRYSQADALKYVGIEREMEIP
# [2] = target: Histone-lysine N-methyltransferase SETD2 (Homo sapiens, UniProt Q9BYW2); experiment: Inhibition of SETD2 (unknown origin)
# [3] = target: Protein arginine N-methyltransferase 5 (Homo sapiens, UniProt O14744); experiment: Inhibition of PRMT5 (unknown origin)
# Sequence of Protein arginine N-methyltransferase 5 (O14744 whole entry): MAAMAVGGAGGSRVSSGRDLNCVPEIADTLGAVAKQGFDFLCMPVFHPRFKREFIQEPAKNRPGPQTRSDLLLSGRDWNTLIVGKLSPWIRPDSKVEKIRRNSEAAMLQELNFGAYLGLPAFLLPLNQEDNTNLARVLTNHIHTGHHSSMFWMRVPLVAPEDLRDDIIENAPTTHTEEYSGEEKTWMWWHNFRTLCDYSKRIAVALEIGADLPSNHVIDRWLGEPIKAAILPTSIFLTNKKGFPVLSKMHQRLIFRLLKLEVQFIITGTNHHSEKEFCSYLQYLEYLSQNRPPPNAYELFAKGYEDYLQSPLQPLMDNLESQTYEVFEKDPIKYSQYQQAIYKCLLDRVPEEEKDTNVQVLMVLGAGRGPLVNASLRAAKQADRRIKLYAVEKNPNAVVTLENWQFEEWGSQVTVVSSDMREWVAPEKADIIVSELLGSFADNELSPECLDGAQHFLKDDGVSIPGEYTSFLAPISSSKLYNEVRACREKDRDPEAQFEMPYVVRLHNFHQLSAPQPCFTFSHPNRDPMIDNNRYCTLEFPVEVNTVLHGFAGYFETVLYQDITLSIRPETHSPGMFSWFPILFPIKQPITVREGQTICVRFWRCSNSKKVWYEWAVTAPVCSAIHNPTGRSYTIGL
# [4] = target: T2, Histone-arginine methyltransferase CARM1 (Homo sapiens, UniProt Q86X55); experiment: Inhibition of PRMT4 (unknown origin)
# T2 sequence (Q86X55 whole entry): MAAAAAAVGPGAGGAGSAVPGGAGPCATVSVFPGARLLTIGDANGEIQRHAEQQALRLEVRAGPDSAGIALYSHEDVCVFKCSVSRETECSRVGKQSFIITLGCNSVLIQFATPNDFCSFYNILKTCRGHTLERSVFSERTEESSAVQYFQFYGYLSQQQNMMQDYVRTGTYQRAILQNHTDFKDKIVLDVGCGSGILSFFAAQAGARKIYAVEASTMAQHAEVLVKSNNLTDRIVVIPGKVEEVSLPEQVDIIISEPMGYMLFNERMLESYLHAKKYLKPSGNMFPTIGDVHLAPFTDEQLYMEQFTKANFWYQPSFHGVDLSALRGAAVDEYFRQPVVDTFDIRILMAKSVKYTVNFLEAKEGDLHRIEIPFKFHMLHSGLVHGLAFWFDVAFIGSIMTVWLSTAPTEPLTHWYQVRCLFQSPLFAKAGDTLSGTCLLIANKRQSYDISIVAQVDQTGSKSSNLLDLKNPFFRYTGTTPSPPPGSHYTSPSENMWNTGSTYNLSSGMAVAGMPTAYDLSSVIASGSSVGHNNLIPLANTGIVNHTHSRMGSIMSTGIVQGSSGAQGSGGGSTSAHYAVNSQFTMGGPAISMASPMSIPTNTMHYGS
# [5] = target: T1, Histone-lysine N-methyltransferase EZH2; experiment: Inhibition of EZH2 (unknown origin) assessed as residence time
# Target sequence in this assay (Q15910 whole entry, looked up): as the sequence (Q15910 whole entry) above
# [6] = target: T1, Histone-lysine N-methyltransferase EZH2; experiment: Binding affinity to EZH2 (unknown origin) assessed as inhibition constant
# Target sequence in this assay (Q15910 whole entry): as above
# [7] = target: T3, Histone-lysine N-methyltransferase SETD7 (Homo sapiens, UniProt Q8WTS6); experiment: Inhibition of SET7 (unknown origin)
# T3 sequence (Q8WTS6 whole entry): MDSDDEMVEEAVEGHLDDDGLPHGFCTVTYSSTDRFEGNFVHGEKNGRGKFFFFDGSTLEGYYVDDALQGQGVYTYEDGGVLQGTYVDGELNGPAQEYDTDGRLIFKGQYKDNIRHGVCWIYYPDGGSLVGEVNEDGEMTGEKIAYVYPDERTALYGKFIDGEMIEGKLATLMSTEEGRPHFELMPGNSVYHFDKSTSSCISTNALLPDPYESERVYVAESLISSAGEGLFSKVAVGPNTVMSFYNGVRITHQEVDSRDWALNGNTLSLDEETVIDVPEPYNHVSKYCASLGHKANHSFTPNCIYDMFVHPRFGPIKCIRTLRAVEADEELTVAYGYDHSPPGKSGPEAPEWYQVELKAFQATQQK
# cells = conditions: Homo sapiens, MCF-10A
# Description: Inhibition of methylation of H3K79 in human MCF-10A cells by fluorescence assay
# [8] = target: T4, Histone-lysine N-methyltransferase, H3 lysine-79 specific (Homo sapiens, UniProt Q8TEK3); experiment: Inhibition of DOT1L (unknown origin)
# T4 sequence (Q8TEK3 whole entry): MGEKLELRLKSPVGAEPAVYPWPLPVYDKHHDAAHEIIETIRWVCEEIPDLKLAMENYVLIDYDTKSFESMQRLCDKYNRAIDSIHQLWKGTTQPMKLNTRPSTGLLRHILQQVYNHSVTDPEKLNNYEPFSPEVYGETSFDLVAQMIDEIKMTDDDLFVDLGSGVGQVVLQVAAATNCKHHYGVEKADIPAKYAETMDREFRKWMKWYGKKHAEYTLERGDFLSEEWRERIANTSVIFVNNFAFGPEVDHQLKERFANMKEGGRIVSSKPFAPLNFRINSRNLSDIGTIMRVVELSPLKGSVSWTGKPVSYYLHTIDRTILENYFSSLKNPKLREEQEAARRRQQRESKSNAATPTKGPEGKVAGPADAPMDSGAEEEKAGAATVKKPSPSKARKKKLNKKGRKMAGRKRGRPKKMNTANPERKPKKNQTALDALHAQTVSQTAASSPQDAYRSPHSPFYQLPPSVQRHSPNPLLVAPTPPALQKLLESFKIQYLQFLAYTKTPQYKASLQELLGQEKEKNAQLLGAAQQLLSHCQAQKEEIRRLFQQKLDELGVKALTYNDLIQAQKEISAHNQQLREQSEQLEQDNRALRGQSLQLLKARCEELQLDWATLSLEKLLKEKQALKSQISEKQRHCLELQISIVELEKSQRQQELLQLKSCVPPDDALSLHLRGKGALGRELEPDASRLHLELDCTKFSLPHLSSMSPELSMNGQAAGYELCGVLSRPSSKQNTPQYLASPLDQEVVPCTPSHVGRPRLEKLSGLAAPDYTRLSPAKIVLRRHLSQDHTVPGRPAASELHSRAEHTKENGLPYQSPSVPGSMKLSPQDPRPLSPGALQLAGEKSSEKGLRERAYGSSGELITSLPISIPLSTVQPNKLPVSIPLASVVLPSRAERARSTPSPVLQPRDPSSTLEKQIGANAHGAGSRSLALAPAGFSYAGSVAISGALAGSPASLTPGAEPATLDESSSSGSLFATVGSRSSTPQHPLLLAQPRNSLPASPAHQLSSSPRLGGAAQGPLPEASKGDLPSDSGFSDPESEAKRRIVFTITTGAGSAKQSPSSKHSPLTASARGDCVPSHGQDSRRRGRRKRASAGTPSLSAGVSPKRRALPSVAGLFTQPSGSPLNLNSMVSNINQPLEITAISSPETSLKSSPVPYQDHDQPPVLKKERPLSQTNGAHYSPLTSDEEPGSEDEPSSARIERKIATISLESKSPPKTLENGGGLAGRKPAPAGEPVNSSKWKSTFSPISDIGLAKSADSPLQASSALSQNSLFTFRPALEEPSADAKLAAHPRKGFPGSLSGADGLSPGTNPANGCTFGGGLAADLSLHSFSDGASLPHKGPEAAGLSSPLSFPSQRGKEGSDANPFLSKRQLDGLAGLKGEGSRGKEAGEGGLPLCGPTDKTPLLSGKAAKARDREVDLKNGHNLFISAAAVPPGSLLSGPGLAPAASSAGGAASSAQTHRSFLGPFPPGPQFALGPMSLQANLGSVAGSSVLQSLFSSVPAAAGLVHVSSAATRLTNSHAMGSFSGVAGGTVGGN
# [9] = Aqueous solubility of the compound; type: physicochemical; conditions: buffer
# [10] = target: T5, Histone-lysine N-methyltransferase EZH2 (Homo sapiens, UniProt Q15910, Y641N); experiment: Binding affinity to EZH2 Y641N mutant (unknown origin) assessed as inhibition constant
# T5 sequence (Q15910 whole entry Y641N): as the sequence (Q15910 whole entry) above, with Y641N counted along it
# [11] = target: T1, Histone-lysine N-methyltransferase EZH2; experiment: Inhibition of wild type EZH2 (unknown origin)
# Target sequence in this assay (Q15910 whole entry): as the sequence (Q15910 whole entry) above
# [12] = target: T5, Histone-lysine N-methyltransferase EZH2; experiment: Inhibition of EZH2 Y641N mutant (unknown origin)
# MV4-11 = experiment: Antiproliferative activity against human MV4-11 cells; type: functional, cell-based
# [13] = target: T6, Histone-lysine N-methyltransferase EHMT2 (Homo sapiens, UniProt Q96KQ7); experiment: Inhibition of G9a (unknown origin)
# T6 sequence (Q96KQ7 whole entry): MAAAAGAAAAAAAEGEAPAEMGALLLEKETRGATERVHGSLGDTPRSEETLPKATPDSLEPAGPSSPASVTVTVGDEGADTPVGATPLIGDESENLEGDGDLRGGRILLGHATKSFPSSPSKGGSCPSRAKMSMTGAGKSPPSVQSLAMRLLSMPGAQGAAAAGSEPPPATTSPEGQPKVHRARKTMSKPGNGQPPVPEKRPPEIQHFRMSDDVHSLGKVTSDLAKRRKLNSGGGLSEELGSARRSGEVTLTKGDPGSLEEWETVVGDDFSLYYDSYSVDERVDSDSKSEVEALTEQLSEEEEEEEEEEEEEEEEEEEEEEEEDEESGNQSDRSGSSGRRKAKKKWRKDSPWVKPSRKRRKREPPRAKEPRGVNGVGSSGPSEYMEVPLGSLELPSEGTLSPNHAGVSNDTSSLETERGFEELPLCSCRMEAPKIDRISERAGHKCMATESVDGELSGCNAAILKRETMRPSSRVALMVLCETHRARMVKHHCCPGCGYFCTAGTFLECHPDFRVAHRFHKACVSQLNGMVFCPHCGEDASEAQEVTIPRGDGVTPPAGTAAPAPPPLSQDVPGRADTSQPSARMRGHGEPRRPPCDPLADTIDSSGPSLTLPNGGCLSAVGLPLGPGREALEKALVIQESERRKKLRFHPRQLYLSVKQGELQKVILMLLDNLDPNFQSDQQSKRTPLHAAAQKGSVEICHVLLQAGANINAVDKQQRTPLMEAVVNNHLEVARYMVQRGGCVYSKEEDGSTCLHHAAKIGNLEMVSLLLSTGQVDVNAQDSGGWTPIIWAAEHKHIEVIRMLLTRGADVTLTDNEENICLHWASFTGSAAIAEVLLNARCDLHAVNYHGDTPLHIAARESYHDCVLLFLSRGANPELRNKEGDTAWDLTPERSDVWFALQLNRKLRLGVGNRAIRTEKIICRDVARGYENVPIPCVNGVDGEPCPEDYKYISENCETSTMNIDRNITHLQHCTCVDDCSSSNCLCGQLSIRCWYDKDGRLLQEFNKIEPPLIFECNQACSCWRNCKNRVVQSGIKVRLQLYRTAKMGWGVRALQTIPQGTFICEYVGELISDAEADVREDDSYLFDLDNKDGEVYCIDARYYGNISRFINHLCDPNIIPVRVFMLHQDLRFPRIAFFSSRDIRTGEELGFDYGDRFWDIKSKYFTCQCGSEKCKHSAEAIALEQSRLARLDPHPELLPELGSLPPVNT
# [14] = target: Protein arginine N-methyltransferase 1 (Homo sapiens, UniProt Q99873); experiment: Inhibition of PRMT1 (unknown origin)
# Sequence of Protein arginine N-methyltransferase 1 (Q99873 whole entry): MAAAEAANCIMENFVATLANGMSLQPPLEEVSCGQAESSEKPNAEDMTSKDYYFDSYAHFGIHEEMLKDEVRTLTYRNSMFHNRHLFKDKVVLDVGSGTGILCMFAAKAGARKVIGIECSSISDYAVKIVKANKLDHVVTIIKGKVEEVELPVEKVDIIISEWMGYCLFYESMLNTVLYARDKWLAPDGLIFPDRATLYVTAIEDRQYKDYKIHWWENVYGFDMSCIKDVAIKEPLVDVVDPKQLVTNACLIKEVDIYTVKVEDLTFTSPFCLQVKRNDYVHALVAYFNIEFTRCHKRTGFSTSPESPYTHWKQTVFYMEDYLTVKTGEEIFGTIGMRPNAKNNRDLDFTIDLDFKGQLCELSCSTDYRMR
# [15] = target: T7, Histone-lysine N-methyltransferase EHMT1 (Homo sapiens, UniProt Q9H9B1); experiment: Inhibition of EHMT1 (unknown origin)
# T7 sequence (Q9H9B1 whole entry): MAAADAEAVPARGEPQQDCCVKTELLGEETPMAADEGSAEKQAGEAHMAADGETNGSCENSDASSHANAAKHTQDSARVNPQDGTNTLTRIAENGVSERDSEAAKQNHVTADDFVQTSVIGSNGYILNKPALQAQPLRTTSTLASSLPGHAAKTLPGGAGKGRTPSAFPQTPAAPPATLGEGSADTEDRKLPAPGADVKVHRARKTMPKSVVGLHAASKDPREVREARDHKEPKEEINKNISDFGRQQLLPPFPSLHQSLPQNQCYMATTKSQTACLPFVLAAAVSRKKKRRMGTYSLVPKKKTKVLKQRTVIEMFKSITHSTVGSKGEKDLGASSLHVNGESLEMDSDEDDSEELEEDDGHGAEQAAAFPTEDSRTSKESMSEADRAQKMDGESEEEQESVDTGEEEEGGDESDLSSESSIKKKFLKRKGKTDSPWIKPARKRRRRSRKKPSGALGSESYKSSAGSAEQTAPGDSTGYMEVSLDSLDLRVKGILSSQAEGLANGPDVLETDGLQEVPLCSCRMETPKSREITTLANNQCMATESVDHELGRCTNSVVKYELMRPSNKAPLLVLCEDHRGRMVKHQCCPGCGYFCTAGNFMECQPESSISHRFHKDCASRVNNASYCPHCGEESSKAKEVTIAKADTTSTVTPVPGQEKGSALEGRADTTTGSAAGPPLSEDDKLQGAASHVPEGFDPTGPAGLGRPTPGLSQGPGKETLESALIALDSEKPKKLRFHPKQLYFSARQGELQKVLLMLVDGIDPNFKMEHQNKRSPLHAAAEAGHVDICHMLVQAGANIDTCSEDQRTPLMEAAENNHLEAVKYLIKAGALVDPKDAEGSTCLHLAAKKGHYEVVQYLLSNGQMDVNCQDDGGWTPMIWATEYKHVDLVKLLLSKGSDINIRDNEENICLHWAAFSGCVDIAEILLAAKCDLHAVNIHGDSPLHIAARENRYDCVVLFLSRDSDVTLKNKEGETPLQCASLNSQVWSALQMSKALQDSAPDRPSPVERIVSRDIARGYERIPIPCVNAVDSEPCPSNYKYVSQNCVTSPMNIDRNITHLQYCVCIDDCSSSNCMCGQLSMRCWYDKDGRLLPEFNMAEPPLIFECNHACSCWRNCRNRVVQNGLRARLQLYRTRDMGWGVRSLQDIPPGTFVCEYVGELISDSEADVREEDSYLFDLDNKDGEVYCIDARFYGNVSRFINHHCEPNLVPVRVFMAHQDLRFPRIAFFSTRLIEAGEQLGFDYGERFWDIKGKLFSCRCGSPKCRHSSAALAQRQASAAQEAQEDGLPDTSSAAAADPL
# [16] = target: T4, Histone-lysine N-methyltransferase, H3 lysine-79 specific; experiment: Inhibition of human recombinant DOT1L by methyltransferase-Glo Bioluminescent assay
structure (smiles),measurement,setting,value
Nc1ncnc2c1ncn2[C@H]1O[C@@H](CSCC[C@H](N)C(=O)NCc2cc(-c3ccccc3)[nH]n2)[C@H](O)[C@@H]1O,IC50,[1],270 nM
CCCN(CC[C@H](N)C(=O)O)C[C@@H]1O[C@H](n2cnc3c(N)ncnc32)[C@@H](O)[C@H]1O,IC50,[2],800 nM
CCNC(=O)NCCCSC[C@@H]1O[C@H](n2cnc3c(N)ncnc32)[C@@H](O)[C@H]1O,IC50,[3],6000 nM
NCCCN(CCCNc1ccccn1)C[C@@H]1O[C@H](n2cnc3c(N)ncnc32)[C@@H](O)[C@H]1O,IC50,[4],90 nM
CSc1cc(C)[nH]c(=O)c1CNC(=O)c1c(C)n([C@@H](C)[C@H]2CC[C@H](N3CC(OC4CC4)C3)CC2)c2ccccc12,IC50,[1],0.057 nM
same,TIME,[5],57 h
CCC(CC)n1ncc2c(C(=O)NCc3c(C)cc(C)[nH]c3=O)cc(C3CC3)nc21,IC50,[1],149 nM
Cc1coc2c1C(=O)C(=O)c1c-2ccc2c1CC[C@@H](O)[C@]2(C)O,IC50,[1],550 nM
same,Ki,[6],194 nM
Cc1cc(C)c(CNC(=O)c2c(C)n([C@H](C)C3CCN(CC(F)(F)F)CC3)c3ccccc23)c(=O)[nH]1,IC50,[1],22 nM
CCCCCCNCCN(CC[C@H](N)C(=O)O)C[C@@H]1O[C@H](n2cnc3c(N)ncnc32)[C@@H](O)[C@H]1O,IC50,[7],> 10000 nM
Nc1ncnc2c1ccn2[C@H]1O[C@@H]([C@H](O)c2ccccc2)[C@H](O)[C@@H]1O,IC50,[3],9.5 nM
CC(C)N(CCCNC(=O)Nc1ccc(C(C)(C)C)cc1)C[C@@H]1O[C@H](n2cc(Br)c3c(N)ncnc32)[C@@H](O)[C@H]1O,IC50,cells,8.8 nM
Nc1ncnc2ccc(N(CC#CC(O)c3nccn3CCO)c3c(Cl)cccc3Cl)cc12 (stereo not drawn),IC50,[8],14000 nM
CNc1ccnc(Nc2ccc3cc(C)n(-c4ccccc4Oc4cnc5c(c4)ncn5C)c3c2)n1,IC50,cells,16 nM
CCCc1cc(C)[nH]c(=O)c1CNC(=O)c1cc(-c2ccc(N3CCN(C(C)C)CC3)nc2)cc2c1cnn2C(C)C,IC50,[1],< 10 nM
Cc1cc(C)c(CN2CCc3c(Cl)cc(-c4c(C)noc4C)c(Cl)c3C2=O)c(=O)[nH]1,IC50,[1],< 5 nM
same,solubility,[9],2 µg/mL
CO[C@@H](c1cc(Cl)c2c(c1Cl)C(=O)N(Cc1c(C)cc(C)[nH]c1=O)CC2)C1COC1,Ki,[10],< 0.1 nM
same,solubility,[9],315 µg/mL
CNc1ccnc(Nc2ccc3sc(Cl)c(-c4cc(-c5c(C)ncn(C)c5=O)cnc4Cl)c3c2)n1,IC50,[8],1400 nM
same,IC50,cells,23 nM
CCC(CC)n1ncc2c(C(=O)NCc3c(C)cc(C)[nH]c3=O)cc(C#N)cc21,IC50,[11],15 nM
same,IC50,[12],13 nM
NC(=O)CNC(=O)Nc1ccc2ccn(-c3ccccc3Cl)c2c1,IC50,[8],9000 nM
CN(CCCNC(=O)CNC(=O)Nc1ccc2sc(Cl)c(-c3cccnc3)c2c1)[C@@H]1CCCC(c2ncnc3[nH]ccc23)C1 (stereo partly drawn),IC50,[8],< 100 nM
Cc1cc(Nc2ccc3nc(C)cc(N)c3c2)nc(Nc2ccc3nc(C)cc(N)c3c2)n1,IC50,MV4-11,37100 nM
Nc1cccc(CCC[C@@H]2C[C@H](n3ccc4c(N)ncnc43)[C@@H](O)[C@H]2O)n1,IC50,[3],0.4 nM
CC(C)(C)c1ccc(CC(=O)c2ncn(CC(=O)NCCn3ccc4c(N)ncnc43)n2)cc1,IC50,[8],1000 nM
Nc1ncnc2c1ncn2[C@H]1O[C@@H](CN(CCI)CCC[C@H](N)C(=O)O)[C@H](O)[C@@H]1O,IC50,[13],1800 nM
same,IC50,[4],1100 nM
COc1cccc(C(=O)NCc2c(C)cc(C)[nH]c2=O)c1Cl,IC50,[1],7.2 nM
N=C(N)NCCCN(CCCN)C[C@@H]1O[C@H](n2cnc3c(N)ncnc32)[C@@H](O)[C@H]1O,IC50,[14],7200 nM
same,IC50,[4],2300 nM
Nc1ncnc2c1ncn2[C@H]1O[C@@H](C[C@H](N)CC[C@H](N)C(=O)O)[C@H](O)[C@@H]1O,IC50,[7],2500 nM
same,IC50,[15],513000 nM
same,IC50,[8],26000 nM
COc1cc([C@H]2Oc3c(O)cc(CCCO)cc3[C@@H]2CO)ccc1O[C@@H]1O[C@@H](C)[C@@H](O)[C@@H](O)[C@H]1O,IC50,[16],399 nM
